According to patent US20040138272A1, “1,4-Substituted cyclohexane derivatives” (priority 2002, published 2004):
Entries after “also recorded” stand apart in the source; their conditions may differ.

Columns and labels:
[1] = tested on: PC12 cells on MAG substrates; assay: Bioassay of PC12 neurite growth on growth inhibitory myelin-associated glycoprotein (MAG) substrates; format: cell-based
Experimental: PC-12 cells (ATCC CRL-1721) typically extend neurites in response to NGF, but when plated on inhibitory substrates, this outgrowth is inhibited and the cells remain round. We tested the ability of the new compound to grow neurites when plated on inhibitory substrates.
We used PC12 cells obtained from the American Type Culture Collection. PC12 cells were grown in Dulbecco's modified eagle's medium (DMEM) with 10% horse serum and 5% fetal bovine serum. To test compounds for the ability to overcome growth inhibition, PC12 cells were collected by detaching with trypsin-EDTA (0.05%), then resuspended in DMEM, 1% FBS, and 50 ng/ml nerve growth factor before plating on MAG substrates. MAG used for substrates was purified from myelin after extraction in 1% octylglucoside and separation by ion exchange chromatography (McKerracher et al. 1994, Neuron 13:805-811). Test substrates were prepared as uniform substrates in 96-well plates by drying overnight in the laminar flow hood (Nalge Nunc, Naperville, Ill.). Plates were precoated with polylysine (100 μg/ml) for 3 hours at 37° C., then washed and dried approx. 1 hour. MAG was prepared as a substrate by drying down 8 μg of protein overnight. After plating on the MAG substrate, the cells were grown at 37 C. for two days in the presence or absence of test compound (BA1003, BA1016, BA1017) to allow neurite growth. Polylysine substrates were used as a positive control. Quantitative analysis of neurite outgrowth was with the aid of Northern Eclipse software (Empix Imaging, Mississauga, Ontario). Data analysis and statistics were with Microsoft Excel.
Referring to FIG. 4 there is shown a graph illustrative of experiments performed in triplicate testing the ability of BA-1003, BA-1016 and BA-1017 to overcome growth inhibition by MAG. PC12 cells were plated on MAG substrates alone (MAG) or MAG substrates in the presence of 0.31 uM, 3.1 um or 31 um concentrations of the test compound. The numbers of neurons that grew neurites were scored, and are shown as the percentage of neurite growth.

[2] = tested on: retinal ganglion cells (RGC); assay: Retinal ganglion cell survival 7 days after optic nerve axotomy, intravitreal injection; format: in vivo, rat; conditions: for % Survival / Average RGC counts: 7 days after axotomy
Text: The retinal ganglion cell (RGC) response to injury and ischemia has been well documented (Berkelaar et al., 1994; Selles-Navarro et al., 1996; Vidal-Sanz et al., 1988; Villegas-Perez et al., 1998; Villegas-Perez et al., 1993). Transection of the optic nerve (ON) in the adult rat, as a model of fiber tract lesion in the adult mammalian CNS, results in delayed, mainly apoptotic death of 80-90% of retinal ganglion cells (RGCs) within 14 days post-lesion. Because of good surgical accessibility of the retina and the optic nerve, the retino-tectal projection represents not only a convenient model to study the molecular mechanisms underlying neuronal death but also serves as a suitable system for investigating potential neuroprotective agents in vivo.
After optic nerve transection, many of the retinal ganglion cells (RGC) in the eye die by apoptosis. The ability of BA-1016 to support RGC cell survival after optic nerve injury was tested. A single injection of BA-1016 was made in the eye, and one week later cell survival was assessed. Three animals were examined for each treatment group. Cell survival was improved one week after BA-1016. Neurotrophic factors that are known to rescue RGCs also give improved cell surival one week after axotomy, but multiple or chronic application is needed to increase the number of surviving cells.
Experiments were performed on adult female CD rats (180-200 g; Charles River, Canada). Animals were cared for according to the Canadian Council on Animal Care. Rats were under general anaesthesia with isofluorane connected to Moduflex Access anaesthesia machine during experimental procedures. Ophthalmic eye ointment (Polysporin) was applied to prevent corneal desiccation. […] All rats were pre-labelled with Fluorogold one week prior to optic nerve lesion.
One week after Fluorogold application, the left optic nerve was transected 1 mm from the eye. […] There are blood vessels on pia and optic nerve. The pia mater sheath was lifted and a lateral incision exposed the optic nerve. It was important not to cut the optic nerve before cutting the pia. When pia was cut, the optic nerve was moved gently to dislodge it from its sheath so that the scissors could be slipped under it to cut it. It was important to not pull the nerve at this point to avoid compromising the blood supply. When the optic nerve was well exposed, small scissors were slid tangentially under optic nerve, making sure to see their end on other side of the nerve, then cutting with one clean cut at 1 mm from the eye. Scissor blades were used as a reference for the 1 mm distance.
In the group of animals assigned to receive intravitreal injection after axotomy, the compounds of interest were injected into the vitreous space. […] The needle was removed after one minute. […]
A binocular microscope was used to view the eye during injection. The skin was closed with staples (auto clips) and the integrity of the retinal vasculature was evaluated by a postoperative ophthalmoscopy using a water-covered microscope slide. […] Finally the animals were returned to the cage and closely monitored until awakened
Seven days after axotomy, animals were killed by injecting an overdose of Chloral hydrate intraperitoneally and then they were fixed by perfusion with 4% paraformaldehyde (PFA), 0.1 M phosphate buffer; the eyes were remove carefully transecting the ocular muscles with scissors and forceps. […] RGCs are examined under the fluorescence microscope with an UV filter (365/420). […]

Substance: (R)-trans-4-(But-3′-en-1′-amino)-N-(4″-pyridyl)cyclohexane Carboxamide Dihydrochloride [BA-1016]
- neurite outgrowth on MAG substrates at the lowest concentration tested ([1]; PC12 cells, 0.31 uM): better neurite outgrowth
- neurite outgrowth on inhibitory MAG substrates (FIG. 4) ([1]; PC12 cells, 0.31, 3.1 or 31 uM, Dihydrochloride): can promote neurite outgrowth; also recorded: able to overcome growth inhibition by MAG
- % Survival ([2]; Axotomy + 0.1 mM): 59%
- Average RGC counts ([2]; Axotomy + 0.1 mM): 1352
- % Survival ([2]; Axotomy + 1 mM): 60%
- Average RGC counts ([2]; Axotomy + 1 mM): 1378
- RGC cell survival after optic nerve injury ([2]; single injection in the eye, one week): improved
